row,SMILES,melting point [°C]
1,Cn1cc2c(n1)c(N)nc1ccccc12,218 to 219
2,COc1ccc(C(=O)OC2C(OC)C=C(C)C(=O)CC2(C)C)cc1 (stereo not given),100 to 101
3,COc1ccc2c(c1OC)CC(c1ccccc1)CC2(O)CN (stereo not given),175 to 176
4,N#Cc1ccc(N2CCN(Cc3cnc4c(c3)NC(=O)[C@@H]3CCCN43)CC2)c(F)c1,226
5,CC(C)n1nc(-c2c(-c3ccccc3)nn3ccc(OCCN4CCOCC4)cc23)ccc1=O,160 to 162
6,CCn1nnnc1CCC1(C)Cn2cc([N+](=O)[O-])nc2O1 (stereo not given),135 to 137
7,COc1ccc(C2=NN(C3CCN(C(=O)[C@H](C)N)CC3)C(=O)[C@@H]3CC=CC[C@H]23)cc1OC,101 to 103
8,O=C(Nc1ccc(-n2nc(C(F)(F)F)cc2C(F)(F)F)cc1)c1cccc(C(F)(F)F)c1,143 to 145
9,O=C1CCCCC1C(C[N+](=O)[O-])c1ccc(OCc2ccccc2)cc1 (racemic),143 to 144
10,CCCCc1nc(C(C)O)c(C(=O)OCC)[nH]1 (stereo not given),149
11,CN(CCCN=C(NC#N)c1cc(C(C)(C)C)c(O)c(C(C)(C)C)c1)CCOc1ccc2c(c1)OCO2,129 to 130
12,CC(C)=CCOc1ccc(C(=O)C=Cc2ccc(F)cc2)c(O)c1,96 to 97
13,OC(CN1CCCC1)c1cc(C(F)(F)F)nc2c(C(F)(F)F)cccc12 (stereo not given),92 to 94
14,C=CCOc1nc2cccc(C(=O)OC)c2n1Cc1ccc(-c2ccccc2-c2nnn[nH]2)cc1,154 to 156
15,Cc1ccccc1C1CC(=O)c2c(C)n[nH]c2C1 (stereo not given),205 to 207
16,O=S(=O)(C(=CNc1ccccn1)c1ccccc1)c1ccccc1,159 to 160
17,C=C(c1ccc2nc(N)n(S(=O)(=O)C(C)C)c2c1)c1cc(F)ccc1F,161 to 164
18,CC(=O)NC1CC(C)(C)N(OC(C)=O)C(C)(C)C1,129 to 132
19,Cc1ccc2c(c1)OC(C(F)(F)F)C(C(=O)O)=C2 (stereo not given),202 to 203
20,Cc1cc(Oc2ccc([N+](=O)[O-])cc2)c2ncccc2c1,143
21,CCOC(=O)c1nn(-c2ccccc2)c2c1Cc1ccccc1-2,110 to 112
22,O=C(O)CCC(=O)c1ccc2oc3ccccc3c2c1,186 to 188
23,CCOC(=O)c1ccc(NCc2cc(Br)ccc2OCc2ccccc2)c(OC)c1,78
24,CCOC(=O)C1CCN(Cc2nc(NCc3ccc(OC)c(Cl)c3)c3c4c(oc3n2)CCCC4)CC1,152
25,O=C(O)c1cnc2ccc(-c3ccc(C(F)(F)F)cc3)cn12,220

row,SMILES,melting point [°C]
1,O=C(Nc1nnn[nH]1)c1cccc([N+](=O)[O-])c1,276
2,COC(=O)c1ccc(CNC(=O)C2Cc3ccccc3N2S(=O)(=O)c2ccc(-c3cccc(C(F)(F)F)c3)cc2)c(OC)c1 (stereo not given),78 to 85
3,Cc1[nH]c(=O)c(C#N)cc1C(=O)c1ccncc1,> 305
4,COc1ccc(-c2nc(-c3ccc4c(c3)N(C)C(=O)CS4)cs2)cc1OC,144
5,CNC(=O)Oc1ccc2c(c1)c1c(n2C)C2(CC1)CCN(C(=O)c1ccccc1)CC2,189 to 190
6,Cc1cc(C(N)=O)cc(C)c1C(=O)O,238 to 240
7,NC(=O)NC1CCN(Cc2ccccc2)CC1,140
8,COCCn1c2cc(CCO)c(OC)cc2c2c3c(c(-c4ccccc4Cl)cc21)C(=O)NC3=O,271 to 273
9,CCOC(=O)CC(=O)c1ccc(OCc2ccccc2)cc1C,59 to 60
10,CC(C)(Br)C(=O)ON1C(=O)CCC1=O,72 to 74
11,O=C1CCCCc2cc(Cl)c(Cl)cc21,> 250
12,Cc1cc(SCc2ccc(OC3CCc4cc(Cl)ccc43)cc2)ccc1OCC(=O)O (stereo not given),130 to 131
13,CCOC(=O)c1ccc(-c2cccc(CN)n2)cc1,141 to 143
14,CCOC(Cc1ccc(OCCN(C)c2nc3ccccc3o2)cc1)C(N)=S (stereo not given),46 to 48
15,COc1ccc2[nH]c3c(c2c1)C1C(=O)OC(=O)C1C(c1ccccc1Cl)C3 (stereo not given),189 to 191
16,CC(C)NC(=O)C1c2cc(NC(=O)c3cc(C(F)(F)F)nn3-c3ncccc3Cl)c(Cl)cc2CC1O (stereo not given),204 to 205
17,O=C1C[C@H](O)C[C@@H](/C=C/c2cnc3ccccc3c2-c2cccs2)O1,102 to 104
18,O=[N+]([O-])c1cccc(CSc2nc3cnccc3[nH]2)c1,208 to 210
19,CCCN(C1CCN(C)CC1)S(=O)(=O)c1ccc(Nc2nccc(Nc3ccc(F)cc3)n2)cc1,232
20,CCS(=O)(=O)N[C@H](C(=O)NCc1ccc(OCc2ccccc2)c(OC)c1)C(C)C,141 to 152
21,Cc1nc2scc(-c3ccc(F)cc3)n2c(=O)c1CCN1CCC(c2noc3cc(F)ccc23)CC1,119 to 122
22,NC(=O)C(c1ccc(Cl)cc1)c1ncc(C(F)(F)F)cc1Cl (stereo not given),135 to 136
23,Cc1c(Cl)csc1-c1nc(-c2c(F)cccc2Cl)nn1C,117 to 118
24,O=c1[nH]c2scc(Br)c2[nH]c1=O,295 to 296
25,CCOC(=O)Nc1ccc(OCCCCl)cc1,91 to 93
